Assay results as given in ChEMBL document CHEMBL4145540 (Eur J Med Chem, 2018).
Activity calls are given as the source filed them. No cut-off for these calls is given here.

Legend:
HEK293 = test: Antiproliferative activity against HEK293 cells after 2 days by MTT assay; assay type: cell-based; conditions: Homo sapiens, HEK293, 48 h
A549 [1] = test: Induction of apoptosis in human A549 cells after 24 hrs by Annexin V-FITC/propidium iodide staining based flow cytometry; assay type: functional, cell-based
A549 [2] = test: Cell cycle arrest in human A549 cells assessed as accumulation at S phase at 45 nM after 20 hrs by propidium iodide staining based flow cytometry (reference value: 16 +/- 1%); assay type: functional
HL-60 = test: Antiproliferative activity against human HL60 cells after 2 days by MTT assay; assay type: functional, cell-based; conditions: HL-60, 48 h
HT-29 = test: Antiproliferative activity against human HT-29 cells after 2 days by MTT assay; assay type: functional, cell-based; conditions: HT-29, 48 h
MCF7 = test: Antiproliferative activity against human MCF7 cells after 2 days by MTT assay; assay type: functional, cell-based; conditions: MCF7, 48 h
A549 [3] = test: Cell cycle arrest in human A549 cells assessed as accumulation at sub-G0 phase at 45 nM after 20 hrs by propidium iodide staining based flow cytometry (reference value: 6.6 +/- 0.1%); assay type: functional
A549 [4] = test: Antiproliferative activity against human A549 cells after 2 days by MTT assay; assay type: functional, cell-based; conditions: A549, 48 h
A549 [5] = test: Induction of apoptosis in human A549 cells at 10 nM after 24 hrs by Annexin V-FITC/propidium iodide staining based flow cytometry (reference value: 28%); assay type: functional
HMEC-1 = test: Antiproliferative activity against HMEC1 cells after 2 days by MTT assay; assay type: functional, cell-based; conditions: Homo sapiens, HMEC-1, 48 h
A549 [6] = test: Cell cycle arrest in human A549 cells assessed as accumulation at G0/G1 phase at 45 nM after 20 hrs by propidium iodide staining based flow cytometry (reference value: 66 +/- 1%); assay type: functional
HeLa = test: Antiproliferative activity against human HeLa cells after 2 days by MTT assay; assay type: functional, cell-based; conditions: 48 h
A549 [7] = test: Induction of apoptosis in human A549 cells at 100 nM after 24 hrs by Annexin V-FITC/propidium iodide staining based flow cytometry (reference value: 28%); assay type: functional
MDA-MB-231 = test: Antiproliferative activity against human MDA-MB-231 cells after 3 days by coulter counting method; assay type: functional, cell-based; conditions: MDA-MB-231, 72 h
Bos taurus = species: Bos taurus; test: Inhibition of calf brain tubulin polymerization after 60 mins by turbidimetric method
A549 [8] = test: Cell cycle arrest in human A549 cells assessed as accumulation at G2/M phase at 45 nM after 20 hrs by propidium iodide staining based flow cytometry (reference value: 11 +/- 1%); assay type: functional
A549 [9] = test: Cell cycle arrest in human A549 cells assessed as accumulation at G0/G1 phase at 650 nM after 20 hrs by propidium iodide staining based flow cytometry (reference value: 66 +/- 1%); assay type: functional
A549 [10] = test: Cell cycle arrest in human A549 cells assessed as accumulation at G2/M phase at 650 nM after 20 hrs by propidium iodide staining based flow cytometry (reference value: 11 +/- 1%); assay type: functional
A549 [11] = test: Cell cycle arrest in human A549 cells assessed as accumulation at sub-G0 phase at 650 nM after 20 hrs by propidium iodide staining based flow cytometry (reference value: 6.6 +/- 0.1%); assay type: functional
A549 [12] = test: Cell cycle arrest in human A549 cells assessed as accumulation at S phase at 650 nM after 20 hrs by propidium iodide staining based flow cytometry (reference value: 16 +/- 1%); assay type: functional
A549 [13] = test: Cell cycle arrest in human A549 cells assessed as accumulation at S phase at 70 nM after 20 hrs by propidium iodide staining based flow cytometry (reference value: 16 +/- 1%); assay type: functional
A549 [14] = test: Cell cycle arrest in human A549 cells assessed as accumulation at G2/M phase at 70 nM after 20 hrs by propidium iodide staining based flow cytometry (reference value: 11 +/- 1%); assay type: functional
A549 [15] = test: Cell cycle arrest in human A549 cells assessed as accumulation at G0/G1 phase at 70 nM after 20 hrs by propidium iodide staining based flow cytometry (reference value: 66 +/- 1%); assay type: functional
A549 [16] = test: Cell cycle arrest in human A549 cells assessed as accumulation at sub-G0 phase at 70 nM after 20 hrs by propidium iodide staining based flow cytometry (reference value: 6.6 +/- 0.1%); assay type: functional

Row | IC50 (HL-60) [µM] | IC50 (HT-29) [µM] | IC50 (MCF7) [µM] | IC50 (A549 [4]) [µM] | IC50 (HeLa) [µM] | IC50 (MDA-MB-231) [µM] | Structure (SMILES) | IC50 (HEK293) [µM] | IC50 (HMEC-1) [µM] | also measured
1 | 0.0018 | 0.023 | 0.0061 | 0.09 | 0.0037 | 0.0137 | COc1ccc(/C=C\c2cc(OC)c(OC)c(OC)c2)cc1NC(=O)Oc1ccc(C)c(Cl)c1 | 0.007 | 0.006 | Activity (A549 [1]): Dose-dependent effect; Activity (A549 [2]): 14%; Activity (A549 [3]): 29%; Activity (A549 [5]): 23%; Activity (A549 [6]): 21%; Activity (A549 [7]): 46%; inhibition (Bos taurus): Active; Activity (A549 [8]): 36%
2 | 0.069 | 0.13 | 0.17 | 1.3 | 0.021 | 0.041 | COc1ccc(/C=C\c2cc(OC)c(OC)c(OC)c2)cc1NC(=O)Oc1ccc(C)c(C)c1 | 0.097 | 0.13 | Activity (A549 [9]): 24%; Activity (A549 [10]): 41%; Activity (A549 [11]): 17%; Activity (A549 [12]): 19%
3 | 0.07 | 0.047 | 0.039 | 0.14 | 0.023 | 0.014 | COc1ccc(/C=C\c2cc(OC)c(OC)c(OC)c2)cc1NC(=O)Oc1cccc(Cl)c1C | 0.014 | 0.02 | Activity (A549 [13]): 18%; Activity (A549 [14]): 39%; Activity (A549 [15]): 24%; Activity (A549 [16]): 20%
